Assay [1] deals with AdiC (S26C mutant) (Salmonella enterica, UniProt P60066, C129S/C238S/C281S/C286S/C369S/C398S/C80S/C97S/S26C). The experiment in a line: competitive inhibition of […]-arginine uptake in oriented proteoliposomes. The assay is classed as biochemical.
In assay [2] the target is AdiC (arginine-agmatine antiporter) (Salmonella enterica, UniProt P60066). The experiment in a line: isothermal titration calorimetry. The assay is classed as binding. Background: In ITC the heat of successive injections is recorded.
Assay [3] has as its target T1, AdiC (S26C mutant) (Salmonella enterica, UniProt P60066, S26C/C80S/C97S/C129S/C238S/C281S/C286S/C369S/C398S).
T1 sequence (P60066 1-445 S26C/C80S/C97S/C129S/C238S/C281S/C286S/C369S/C398S): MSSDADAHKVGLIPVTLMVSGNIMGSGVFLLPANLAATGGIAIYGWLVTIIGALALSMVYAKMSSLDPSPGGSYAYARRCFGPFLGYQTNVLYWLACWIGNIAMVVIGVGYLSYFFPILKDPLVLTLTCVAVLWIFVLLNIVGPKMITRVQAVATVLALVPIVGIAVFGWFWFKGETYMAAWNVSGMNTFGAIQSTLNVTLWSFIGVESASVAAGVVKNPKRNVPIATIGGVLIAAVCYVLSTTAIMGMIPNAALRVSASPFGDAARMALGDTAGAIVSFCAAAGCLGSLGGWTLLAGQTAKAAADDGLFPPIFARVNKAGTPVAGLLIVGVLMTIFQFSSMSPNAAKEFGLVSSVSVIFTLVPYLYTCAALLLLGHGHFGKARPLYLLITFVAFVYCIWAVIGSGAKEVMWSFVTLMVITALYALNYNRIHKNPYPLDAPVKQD
Kind of assay: isothermal titration calorimetry. The assay is classed as binding.

For `N=C(N)NCCC[C@H](N)C(N)=O` [argininamide], at AdiC (S26C mutant) [1], affinity was put at a Ki of 1100 µM.

With `N=C(N)NCCC[C@H](N)C(=O)O` [arginine], the Kd (commonly the free concentration of one partner at which half of the binding sites on the other are occupied at equilibrium, for simple one-to-one binding) in assay [2] was 32 µM; on AdiC (S26C mutant) [3], 22 ± 2 µM.

Source of the values: PMC3290904 (Biochemistry, 2012).
